Experiment [1] deals with Hut78 T lymphocytic leukemia cells. The experiment in a line: In vitro anti-proliferative effect, CCK-8 method, Hut78. The format is cell-based. Conditions: Homo sapiens, HuT78, read-out: Hut-78 (inhibition %). The method, then:
(§1) The inhibitory activities of the compounds towards Hut78 T lymphocytic leukemia cells, Jurkat E6-1 human T-cell lymphoma, PANC-1 human pancreatic cancer cells, A549 human lung cancer cells, K562 human chronic myelogenous leukemia cells, Hep3B2.1-7 human liver cancer cells, MDA-MB-435s human breast cancer cells. Colo320 human colorectal cancer cell lines, and PC-3 human prostate cancer at two concentrations of 100 μM and 10 μM were determined. The inhibition percentages were obtained through CCK-8 method.

For experiment [2], the system named is PC-3 human prostate cancer. The experiment in a line: In vitro anti-proliferative effect, CCK-8 method, PC-3. The note with it: Homo sapiens, PC-3 cell strain, CCK-8 method; for inhibition at 10 µM: compound at 10 μM; for inhibition at 100 µM: compound at 100 μM. The class given is cell-based. The method, then:
as §1

Experiment [3] concerns K562 human chronic myelogenous leukemia cells. The experiment can be described thus: In vitro anti-proliferative effect, CCK-8 method, K562. The format is cell-based. Conditions: Homo sapiens, K562. The method, then:
as §1
A general note: Tetrazolium assays rely on reduction of a dye to a coloured formazan, in cell work by metabolically active cells.

In experiment [4] the test system is A549 human lung cancer cells. The experiment can be described thus: In vitro anti-proliferative effect, CCK-8 method, A549. The class given is cell-based. Conditions: Homo sapiens, A549. The procedure: as §1
Experiment [5] concerns MDA-MB-435s human breast cancer cells. The experiment can be described thus: In vitro anti-proliferative effect, CCK-8 method, MDA-MB-435s. The class given is cell-based. The note with it: Homo sapiens, MDA-MB-435S. The procedure:
as §1

Experiment [6] has as its system Hep3B2.1-7 human liver cancer cells. The experiment can be described thus: In vitro anti-proliferative effect, CCK-8 method, Hep3B. The note with it: Homo sapiens, Hep3B cell strain, CCK-8 method; for inhibition at 10 µM: compound at 10 μM; for inhibition at 100 µM: compound at 100 μM. The class given is cell-based. The method, then: as §1
The next experiment has as its system HDACs. The experiment can be described thus: In vitro inhibition of HDACs (HDAC Inhibitor Drug Screening Kit, Biovision K340-100). The format is biochemical. The note with it: for inhibitory activity on HDACs compared with MS-275: concentrations of 2 mM, 200 μM, and 40 μM. The procedure:
The in vitro inhibitory activities of the compounds towards HDACs were tested according to the instructions in the HDAC Inhibitor Drug Screening Kit (Biovision/Catalog #K340-100).
(1) The compounds to be tested were each individually prepared as 2 mM, 200 μM and 40 μM solutions and their inhibitory activities at these concentrations were tested.

Experiment [7] deals with PANC-1 human pancreatic cancer cells. The experiment can be described thus: In vitro anti-proliferative effect, CCK-8 method, PANC-1. The note with it: Homo sapiens, PANC-1. The format is cell-based. The procedure: as §1
In experiment [8] the test system is Jurkat E6-1 human T-cell lymphoma. The experiment can be described thus: In vitro anti-proliferative effect, CCK-8 method, Jurkat E6-1. The class given is cell-based. The note with it: Homo sapiens, Jurkat E6.1. The method, then:
as §1

Experiment [9] relates to Colo320 human colorectal cancer cell lines. The experiment in a line: In vitro anti-proliferative effect, CCK-8 method, Colo320. The format is cell-based. Conditions: Homo sapiens, COLO 320, Colo320 cell strain, CCK-8 method; for inhibition at 10 µM: compound at 10 μM; for inhibition at 100 µM: compound at 100 μM. The procedure:
as §1

As a reminder, the inhibition is the change of the read-out against control, counted positive when it falls. One may read the IC50 as the concentration that inhibits the measured activity by half. Higher therefore signals a need for much substance.

Regarding `Nc1ccccc1NC(=O)c1ccc(Nc2ncnc3ccccc23)cc1` [Compound V-1, N-(2-aminophenyl)-4-(quinazoline-4-amino)benzamide], the inhibition at 10 µM is 36% in [1]; 79.5% in [2]; 22.4% in experiment [3]; 50.6% in experiment [4]; 26.7% in experiment [5]; 2.6% in [6]. Further, the inhibition at 10 µM in experiment [7] was determined as 40.2%; in [8], 48.5%; in [9], 33.7%. Further, the inhibition at 100 µM was found to be 67.2% in experiment [1]; 91.5% in experiment [2]; 30.8% in experiment [3]; 89.7% in experiment [4]; 87.5% in experiment [5]; 37.4% in [6]. In addition, the inhibition at 100 µM in [7] amounted to 65.4%; in [8], 79.3%; in experiment [9] it was 78.3%. Further, the “Inhibition percentage (%) towards HDACs” value in the experiment with HDACs (40 μM) came out at 9.4%; in the experiment with HDACs (200 μM) it was 19.8%; in the experiment on HDACs (2 mM) it was 65.2%.
In the case of `Nc1ccc(F)cc1NC(=O)c1ccc(Nc2ncnc3ccccc23)cc1` [Compound V-3, N-(2-amino-5-fluorophenyl)-4-(quinazoline-4-amino)benzamide], the inhibition at 10 µM in [1] was 18.2%; in [2] it was 0.6%; in [3], 51%; in experiment [4], -7.8%; in experiment [5] it was 4.5%; in [6] it was -12.3%. Besides, the inhibition at 10 µM in experiment [7] was 5.7%; in [8], 27.1%; in experiment [9] it was -7.1%. Moreover, the inhibition at 100 µM amounted to 92.9% in [1]; 36.9% in [2]; 85.1% in experiment [3]; 72.3% in experiment [4]; 85.5% in [5]; 59.2% in [6]. The inhibition at 100 µM in experiment [7] was determined as 5.5%; in [8] it was 96%; in experiment [9], 47.2%. For the same molecule, the figures for the “Inhibition percentage (%) towards HDACs” value in the experiment with HDACs (40 μM), in the experiment with HDACs (200 μM) and with HDACs (2 mM) were 9.5%, 36.0% and 78.2%, respectively.
With `COc1cc2ncnc(NCc3ccc(C(=O)Nc4cc(-c5cccs5)ccc4N)cc3)c2cc1OC` [Compound V-31, N-[2-amino-5-(2-thienyl)phenyl]-4-[(6,7-dimethoxyquinazoline-4-amino)methyl]benzamide], the inhibition at 10 µM in experiment [1] is 28.2%; in experiment [2], 6.3%; in [3], 27.9%; in experiment [4] it was 56.3%; in [5] it was 24.2%; in experiment [6], -5%. Moreover, the inhibition at 10 µM in [7] worked out at 20.8%; in experiment [8], 62.4%; in experiment [9] it was 76.3%. Further, the inhibition at 100 µM in experiment [1] stood at 95.8%; in [2], 38.8%; in experiment [3], 67.7%; in experiment [4], 88.8%; in [5], 89.2%; in experiment [6], 51.7%. In addition, the inhibition at 100 µM worked out at 50.6% in experiment [7], 93.7% in [8] and 77% in experiment [9]. The “Inhibition percentage (%) towards HDACs” value with HDACs (40 μM) is 3.5%; in the experiment with HDACs (200 μM), 17.3%; in the experiment with HDACs (2 mM), 69.8%.
For `COc1ccc2c(NCc3ccc(C(=O)Nc4ccccc4N)cc3)ncnc2c1` [Compound V-32, N-(2-aminophenyl)-4-[(7-methoxyquinazoline-4-amino)methyl]benzamide], the figures for the “Inhibition percentage (%) towards HDACs” value with HDACs (40 μM), with HDACs (200 μM) and in the experiment on HDACs (2 mM) were 2.2%, 3.1% and 42.5%, respectively.
`COc1ccc2ncnc(NCc3ccc(C(=O)Nc4ccccc4N)cc3)c2c1` [Compound V-33, N-(2-aminophenyl)-4-[(6-methoxyquinazoline-4-amino)methyl]benzamide]: in the experiment with HDACs, the IC50 was found to be 1010 nM, the “inhibitory activity according to in vitro IC50 value against HDACs compared with MS-275” value is listed as “better inhibitory activities than MS-275” and the “inhibitory activity on HDACs compared with MS-275” value is “significantly stronger inhibitory activities than MS-275”. The “Inhibition percentage (%) towards HDACs” value with HDACs (40 μM) was 53.2%. Moreover, the “Inhibition percentage (%) towards HDACs” value in the experiment with HDACs (200 μM) turned out to be 66.8%. Moreover, in the experiment with HDACs (2 mM), the “Inhibition percentage (%) towards HDACs” value worked out at 88.8%.
As to `COc1cccc2c(NCc3ccc(C(=O)Nc4cc(F)ccc4N)cc3)ncnc12` [Compound V-35, N-(2-amino-5-fluorophenyl)-4-[(8-methoxyquinazoline-4-amino)methyl]benzamide], the figures for the “Inhibition percentage (%) towards HDACs” value in the experiment on HDACs (40 μM), in the experiment on HDACs (200 μM) and with HDACs (2 mM) were 10.1%, 47.8% and 81.8%, respectively.
Regarding `Nc1ccccc1NC(=O)c1ccc(CNc2ncnc3ccc([N+](=O)[O-])cc23)cc1` [Compound V-37, N-(2-aminophenyl)-4-[(6-nitroquinazoline-4-amino)methyl]benzamide], the results for the “Inhibition percentage (%) towards HDACs” value in the experiment with HDACs (40 μM), with HDACs (200 μM) and in the experiment with HDACs (2 mM) were 24.0%, 56.1% and 65.7%, respectively.
Consider `COCCOc1cc2ncnc(NCc3ccc(C(=O)Nc4ccncc4N)cc3)c2cc1OCCOC` [Compound V-39, N-(2-amino-4-pyridyl)-4-[(6,7-dimethoxyethoxyquinazoline-4-amino)methyl]benzamide], for which the “Inhibition percentage (%) towards HDACs” value in the experiment on HDACs (40 μM) was determined as 34.3%; with HDACs (200 μM), 58.0%; in the experiment on HDACs (2 mM), 85.3%.
As for `COc1cc2ncnc(NCc3ccc(C(=O)Nc4ccncc4N)cc3)c2cc1OCCCN1CCOCC1` [Compound V-42], in the experiment with HDACs, the IC50 stood at 1670 nM, the “inhibitory activity according to in vitro IC50 value against HDACs compared with MS-275” value was “better inhibitory activities than MS-275” and the “inhibitory activity on HDACs compared with MS-275” value is on record as “significantly stronger inhibitory activities than MS-275”. In addition, the “Inhibition percentage (%) towards HDACs” value with HDACs (40 μM) is on record as 17.2%. The “Inhibition percentage (%) towards HDACs” value in the experiment on HDACs (200 μM) came to 46.7%. Besides, the “Inhibition percentage (%) towards HDACs” value in the experiment on HDACs (2 mM) amounted to 90.6%.
Turning to `CC(=O)Nc1ccc2ncnc(NCc3ccc(C(=O)Nc4cc(-c5ccco5)ccc4N)cc3)c2c1` [Compound V-48, N-[2-amino-5-(2-furyl)phenyl]-4-[(6-acetamidoquinazoline-4-amino)methyl]benzamide], the inhibition at 10 µM was 75.4% in experiment [1]; -16.4% in experiment [2]; 20% in experiment [3]; 3.9% in [4]; 10% in experiment [5]; -14% in experiment [6]. In addition, the results for the inhibition at 10 µM in experiment [7], in experiment [8] and in experiment [9] were -2.2%, 9.7% and 2.9%, respectively. For the same molecule, the inhibition at 100 µM in experiment [1] turned out to be 87.4%; in experiment [2] it was 14.8%; in [3], 57.2%; in [4], 9.8%; in [5] it was 26.6%; in [6], 20.5%. Besides, the inhibition at 100 µM amounted to 51.8% in experiment [7], 61.9% in experiment [8] and 17.9% in [9]. Also, the “Inhibition percentage (%) towards HDACs” value in the experiment with HDACs (40 μM) is listed as 14.0%; in the experiment with HDACs (200 μM), 42.2%; in the experiment with HDACs (2 mM), 85.0%.

The values are drawn from US9034886B2, “4-aminoquinazoline derivatives and uses thereof” (Shanghai Institute of Pharmaceutical Industry, priority 2011, dated 2015).
